Test results: EP2881391A1, “Spiroindoline carbocycle derivatives and pharmaceutical compositions thereof” (Bayer Pharma Aktiengesellschaft, priority 2013, dated 2015)
pIC50: −log10 of the molar value.

Target: T1, human GnRH receptor (Homo sapiens, UniProt P30968)
T1 construct: line established by Prof; Thomas Gudermann; host or cells: CHO cells
T1 sequence (P30968 1-328): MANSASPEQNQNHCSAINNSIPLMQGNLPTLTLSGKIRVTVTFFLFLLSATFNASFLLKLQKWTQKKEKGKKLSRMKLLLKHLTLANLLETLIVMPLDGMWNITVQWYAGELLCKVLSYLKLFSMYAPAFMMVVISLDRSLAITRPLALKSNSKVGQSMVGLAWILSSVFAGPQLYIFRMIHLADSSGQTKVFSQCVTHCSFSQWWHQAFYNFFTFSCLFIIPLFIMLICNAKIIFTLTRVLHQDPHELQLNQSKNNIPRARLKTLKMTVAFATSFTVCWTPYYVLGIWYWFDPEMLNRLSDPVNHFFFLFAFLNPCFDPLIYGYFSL
Assay: IP-One HTRF assay (inhibition of GnRH-R activation by buserelin)
Format: cell-based
Details: IP-One HTRF assay with buserelin (at EC80) stimulation; CHO cells stably expressing human GnRH receptor; tested 20 µM to 1 nM; read-out: Potency IC50
Description: By using homogenous time-resolved fluorescence resonance energy transfer (HTRF), the generation of one component of the GnRH-R signalling cascade can be measured. After stimulation of CHO cells stably expressing human GnRH receptor (established by Prof. Thomas Gudermann, currently University of Marburg, Germany; supplied as frozen cell aliquots by Cell Culture Services, Hamburg, Germany) with the EC80 of the GnRH agonist buserelin, Gq protein-coupled receptor signalling cascade is activated resulting in PLC-dependent cleavage of PIP2 to Inositol-1,4,5-triphosphate (IP3) and Diacylglycerol. The second messenger IP3 is degraded intracellularly to myo-inositol. Inhibition of the final degradation step from Inositol-1-phosphate (IP1) to myo-inositol by addition of lithium chloride leads to accumulation of IP1 in the cells. In cell lysates, IP1 can be detected via an antibody-based HTRF detection technology, where IP1 can displace the FRET acceptor IP1-d2 from binding by Terbium-labelled anti-IP1 antibody as donor resulting in a signal decrease. Compounds were tested for their capability of inhibiting GnRH-R activation by buserelin. For all IP-One HTRF® assays reagents of Cisbio Bioassays (IP-One Tb Jumbo kit, #62IPAPEJ; Cisbio Bioassays, Bagnols sur Cèze Cedex, France) were used.
For the assay, frozen cell aliquots were thawed and a cell suspension (3.33x10^6 cells/ml) containing IP1-d2 (dilution 1:40) was prepared and incubated at 37°C. After 1 h 3 µl of the cell suspension were added to 50 nl of a 100-fold concentrated solution of the test compound in DMSO pre-dispensed in a well of a white low-volume 384-well microtiter plate (Greiner Bio-One, Frickenhausen, Germany). The mixture was incubated for 20 min at 22°C to allow for pre-binding of the test compound to the GnRH-R. The receptor signaling cascade was stimulated by addition of 2 µl buserelin or LHRH (at EC50 or EC80) in stimulation buffer (10 mM Hepes pH 7.4, 1 mM CaCl2, 0.5 mM MgCl2, 4.2 mM KCI, 146 mM NaCl, 5.5 mM α-D-Glucose, 0.05% BSA, 125 mM LiCl (final assay concentration 50 mM) in aqua dest.). Plates were incubated for 1 h at 37°C and 5% carbon dioxide before the cells were lysed by adding 3 µl Terbium-labelled anti-IP1 antibody (1:40) diluted in Conjugate & Lysis buffer as supplied with the kit. After an incubation for 1 h at 22°C to enable complete cell lysis and antibody binding to free IP1 or IP1-d2, plates were measured in an HTRF reader, e.g. a RUBYstar, PHERAstar (both BMG Labtechnologies, Offenburg, Germany) or a Viewlux (PerkinElmer LAS, Rodgau-Jügesheim, Germany). From the fluorescence emissions at 665 nm (FRET) and at 620 nm (background signal of Terbium-antibody), the ratio (emission at 665 nm divided by emission at 620 nm) was calculated and the data were normalized (reaction without test compound = 0% inhibition; all other assay components except agonist = 100% inhibition). On the same microtiter plate, compounds were tested at 10 different concentrations in the range of 20 µM to 1 nM (20 µM, 6.7 µM, 2.2 µM, 0.74 µM, 0.25 µM, 82 nM, 27 nM, 9.2 nM, 3.1 nM and 1 nM; dilution series prepared before the assay at the level of the 100-fold conc. stock solutions by serial 1:3 dilutions in 100% DMSO) in duplicate values for each concentration. By using an in-house software, the IC50 values were calculated by a 4 parameter fit. The data reveal that the compounds of the present invention have antagonist activities on the human GnRH receptor. Within the meaning of the present invention the antagonist activity is reflected by the ability of a compound of the invention to antagonize human GnRH receptor stimulation in IP-One HTRF® assay at least three times the standard deviation over the background level.

| Structure (SMILES) | pIC50 |
| --- | --- |
| CC1N(S(=O)(=O)c2ccc(F)cc2)c2ccc(C(=O)NCc3ccccc3Cl)cc2C12CCC(O)(C(F)(F)F)CC2 (centres unmarked) [Example 26, N-(2-chlorobenzyl)-1'-[(4-fluorophenyl)sulfonyl]-4-hydroxy-2'-methyl-4-(trifluoromethyl)-1',2'-dihydrospiro[cyclohexane-1,3'-indole]-5'-carboxamide] | 6.36 |
| O=C(NCc1ccc(F)cc1Cl)c1ccc2c(c1)C1(CCC(O)(C(F)(F)F)CC1)C(C1CC1)N2S(=O)(=O)c1ccc(F)cc1 (centres unmarked) [Example 60, N-(2-chloro-4-fluorobenzyl)-2'-cyclopropyl-1'-[(4-fluorophenyl)sulfonyl]-4-hydroxy-4-(trifluoromethyl)-1',2'-dihydrospiro[cyclohexane-1,3'-indole]-5'-carboxamide] | 6.36 |
| CC(C)=CCC1N(S(=O)(=O)c2ccc(F)cc2)c2ccc(C(=O)NCC3CCCCC3)cc2C12CCC(O)(C(F)(F)F)CC2 (centres unmarked) [Example 21, N-(cyclohexylmethyl) -1'-[(4-fluorophenyl)sulfonyl]-4-hydroxy-2'-(3-methylbut-2-en-1-yl)-4-(trifluoromethyl)-(trifluoromethyl)-1',2'-dihydrospiro[cyclohexane-1,3'-indole]-5'-carboxamide] | 4.88 |
| O=C(NCc1ncc(C(F)(F)F)cc1Cl)c1ccc2c(c1)C1(CCC(O)CC1)C(C1CC1)N2S(=O)(=O)c1ccc(F)cc1 (centres unmarked) [Example 7, N-{[3-chloro-5-(trifluoromethyl)pyridin-2-yl]methyl}-2'-cyclopropyl-1'-[(4-fluorophenyl)sulfonyl]-4-hydroxy-1',2'-dihydrospiro[cyclohexane-1,3'-indole]-5'-carboxamide] | 7.28 |
| O=C(Nc1cccc(Cl)c1)c1ccc2c(c1)C1(CCC(O)(C(F)(F)F)CC1)C(C1CC1)N2S(=O)(=O)c1ccc(F)cc1 (centres unmarked) [Example 55, N-(3-chlorophenyl)-2'-cyclopropyl-1'-[(4-fluorophenyl)sulfonyl]-4-hydroxy-4-(trifluoromethyl)-1',2'-dihydrospiro[cyclohexane-1,3'-indole]-5'-carboxamide] | 6.15 |
| COC(=O)c1cccc(NC(=O)c2ccc3c(c2)C2(CCC(O)(C(F)(F)F)CC2)C(C2CC2)N3S(=O)(=O)c2ccc(F)cc2)c1 (racemic) [Example 30, methyl 3-[({2'-cyclopropyl-1'-[(4-fluorophenyl)sulfonyl]-4-hydroxy-4-(trifluoromethyl)-1',2'-dihydrospiro[cyclohexane-1,3'-indol]-5'-yl}carbonyl)amino] benzoate] | 6.64 |
| COC(=O)c1cccc(S(=O)(=O)N2c3ccc(C(=O)NCc4ncccc4C(F)(F)F)cc3C3(CCC(O)(C(F)(F)F)CC3)C2C2CC2)c1 (centres unmarked) [Example 29, methyl 3-{[2'-cyclopropyl-4-hydroxy-4-(trifluoromethyl)-5'-({[3-(trifluoromethyl)pyridin-2-yl]methyl}carbamoyl)spiro[cyclohexane-1,3'-indol]-1'(2'H)-yl]sulfonyl}benzoate] | 6.21 |
| O=C(NC1(c2ccc(Cl)cc2)CC1)c1ccc2c(c1)C1(CCC(O)(C(F)(F)F)CC1)C(C1CC1)N2S(=O)(=O)c1ccc(F)cc1 (centres unmarked) [Example 51, N-[1-(4-chlorophenyl)cyclopropyl]-2'-cyclopropyl-1'-[(4-fluorophenyl)sulfonyl]-4-hydroxy-4-(trifluoromethyl)-1',2'-dihydrospiro[cyclohexane-1,3'-indole]-5'-carboxamide] | 6.26 |
| COC(=O)c1cccc(S(=O)(=O)N2c3ccc(C(=O)NCc4ncccc4Cl)cc3C3(CCCCC3)C2C2CC2)c1 (centres unmarked) [Example 11, methyl 3-{[5'-{[(3-chloropyridin-2-yl)methyl]carbamoyl}-2'-cyclopropylspiro[cyclohexane-1,3'-indol]-1'(2'H)-yl]sulfonyl}benzoate] | 5.91 |
| COc1cccc(S(=O)(=O)N2c3ccc(C(=O)Nc4ncco4)cc3C3(CCC(O)(C(F)(F)F)CC3)C2C2CC2)c1 (centres unmarked) [Example 41, 2'-cyclopropyl-4-hydroxy-1'-[(3-methoxyphenyl)su Ifonyl]-N-(1,3-oxazol-2-yl)-4-(trifluoromethyl)-1',2'-dihydrospiro[cyclohexane-1,3'-indole]-5'-carboxamide] | 5.83 |
| COc1cccc(S(=O)(=O)N2c3ccc(C(=O)Nc4cncc(C(F)(F)F)c4)cc3C3(CCC(O)(C(F)(F)F)CC3)C2C2CC2)c1 (centres unmarked) [Example 40, 2'-cyclopropyl-4-hydroxy-1'-[(3-methoxyphenyl)su Ifonyl]-4-(trifluoromethyl)-N-[5-(trifluoromethyl)pyridin-3-yl]-1',2'-dihydrospiro[cyclohexane-1,3'-indole]-5'-carboxamide] | 5.25 |
| O=C(O)c1cccc(S(=O)(=O)N2c3ccc(C(=O)NCc4ncc(C(F)(F)F)cc4F)cc3C3(CCC(O)(C(F)(F)F)CC3)C2C2CC2)c1 (centres unmarked) [Example 49, 3-{[2'-cyclopropyl-5'-({[3-fluoro-5-(trifluoromethyl)pyridin-2-yl]methyl}carbamoyl)-4-hydroxy-4-(trifluoromethyl)spiro[cyclohexane-1,3'-indol]-1'(2'H)-yl]sulfonyl}benzoic acid] | 5.37 |
| CC(C)=CCC1N(S(=O)(=O)c2ccc(F)cc2)c2ccc(C(=O)Nc3cccc(C)c3)cc2C12CCC(O)(C(F)(F)F)CC2 (centres unmarked) [Example 13, 1'-[(4-fluorophenyl)sulfonyl]-4-hydroxy-2'-(3-methylbut-2-en-1-yl)-N-(3-methylphenyl)-4-(trifluoromethyl)-1',2'-dihydrospiro[cyclohexane-1,3'-indole]-5'-carboxamide] | 5.49 |
| O=C(NCc1ncc(F)cc1Cl)c1ccc2c(c1)C1(CCC(O)(C(F)(F)F)CC1)C(C1CC1)N2S(=O)(=O)c1ccc(F)cc1 (centres unmarked) [Example 64, N-[(3-chloro-5-fluoropyridin-2-yl)methyl]-2'-cyclopropyl-1'-[(4-fluorophenyl)sulfonyl]-4-hydroxy-4-(trifluoromethyl)-1',2'-dihydrospiro[cyclohexane-1,3'-indole]-5'-carboxamide] | 6.28 |
| Cc1cncc(NC(=O)c2ccc3c(c2)C2(CCC(O)(C(F)(F)F)CC2)C(C2CC2)N3S(=O)(=O)c2ccc(F)cc2)c1 (centres unmarked) [Example 25, 2'-cyclopropyl-1'-[(4-fluorophenyl)sulfonyl]-4-hydroxy-N-(5-methylpyridin-3-yl)-4-(trifluoromethyl)-1',2'-dihydrospiro[cyclohexane-1,3'-indole]-5'-carboxamide] | 6.25 |
| O=C(NCc1ncccc1C(F)(F)F)c1ccc2c(c1)C1(CCC(O)(C(F)(F)F)CC1)C(C1CC1)N2S(=O)(=O)c1ccc(F)cc1 (single isomer, unassigned) [Example 65-2] | 6.94 |
| O=C(NCc1ncc(C(F)(F)F)cc1F)c1ccc2c(c1)C1(CCC(O)(C(F)(F)F)CC1)C(C1CC1)N2S(=O)(=O)c1cccc(C(=O)N2CCC2)c1 (centres unmarked) [Example 63, 1'-{[3-(azetidin-1-ylcarbonyl)phenyl]sulfonyl}-2'-cyclopropyl-N-{[3-fluoro-5-(trifluoromethyl)pyridin-2-yl]methyl}-4-hydroxy-4-(trifluoromethyl)-1',2'-dihydrospiro[cyclohexane-1,3'-indole]-5'-carboxamide] | 5.49 |
